These results are taken from publication PMC8911640, “Synthesis and Structure–Activity Relationship of Thioacetamide-Triazoles against Escherichia coli” (Molecules, 2022).

In brackets after ≈: the same amount, converted by molar mass. Several values for one entry are separate records, joined by “and”; a condition that tells them apart may be missing. Equal values may be shown once. Read-outs that look alike come from different tables or passages of the source.

One data set can be described thus: Solubility. The format is physicochemical. How it is done: (§1) The in vitro ADME values (solubility, mouse plasma stability, human plasma stability, mouse metabolic stability, and human metabolic stability) were determined as previously reported.
The nature of data set [1]: Metabolic (microsomal) stability (human). The format is in vitro ADME. Conditions: microsomes; for half-life: read-out: Metabolic Stability (Human) t1/2 (converted). On the procedure: as §1
Another data set has as its system E. coli K12 MG1655. Briefly: MIC testing by CLSI broth microdilution in M9-based minimal media ATCC 2511, with or without methionine. Conditions: for MIC90: Escherichia coli; for antibacterial activity against E. coli in words: E. coli K12. The format is cell-based, Escherichia coli. On the procedure:
To explore the SAR around the right hand aryl portion of the TAT series (Table 1), compounds were evaluated for their in vitro antibacterial activity against E. coli in the M9-based minimal media ATCC 2511. […]. An MIC shift between the two medias was used to indicate that antibacterial activity of the compounds remained on target, and this was happily seen with all of the most MIC active compounds generated in this study. Within the first series of compounds in Table 1, modifications to the phenyl ring are generally well tolerated. MICs remain within 2-fold of the initial hit 1 for the fluoro- and cyano- substituted compounds 1–8. […]. Incorporating the electron-donating group -OMe and sterically bulky iodine group in both ortho and para position, 17–20, maintained activity, whereas the introduction of the strong electron-withdrawing -CF3 group, 21 and 22, led to poorer MIC activity. […] The phenyl ring isosteres—thiazoles 25 and 26—both retained good MIC activity. Adding a methyl branch to the thioacetamide linker 28 and 29 led to a striking loss of activity. Replacement of the aryl group with the aliphatic groups cyclohexyl 31, cyclopentyl 32, tert-butyl groups 33 all reduced activity.
MICs were determined following CLSI broth microdilution susceptibility M100 guidelines. Compound solutions were prepared in DMSO and serially diluted 1:2 in 100 μL/well in 96 well round-bottom plates. E. coli K12 MG1655 was acquired from ATCC and strictly maintained in the M9-based media ATCC 2511. ATCC 2511 was also used for all further cultivation and MIC testing. Bacteria were grown from a single colony to a mid-log OD600 and frozen in 0.5 mL aliquots. These aliquots were used to directly inoculate the assay plates by diluting to an OD600 of 0.001 and plating 100 μL per well, allowing for ~10^5 CFU to be added to each well.

A short description of the next data set: Plasma stability (human). Type of data set: in vitro ADME. As to conditions: read-out: Plasma Stability (Human) t1/2 (converted). On the procedure:
as §1

Another data set can be described thus: Plasma stability (mouse). Type of data set: in vitro ADME. Conditions: read-out: Plasma Stability (Mouse) t1/2 (converted). On the procedure: as §1
Data set [2] can be described thus: Metabolic (microsomal) stability (mouse). As to conditions: microsomes; for half-life: read-out: Metabolic Stability (Mouse) t1/2 (converted). Type of data set: in vitro ADME. How it is done:
as §1

The next data set relates to E. coli K12. Briefly: Whole cell accumulation in E. coli K12 (LC-MS/MS). More on the design: dose or concentration left out as unconfirmed. Conditions: 10 min, 37 °C; average of three biological replicates.
Where [3] appears, read: pH 7.4, aqueous buffer, pH 7.4 (Table S1), read-out: Solubility Avg. Sol.
[4] abbreviates: pH 7.4, aqueous buffer, pH = 7.4, average of triplicate ± standard deviation, read-out: Avg. Sol.
[5] abbreviates: MG1655, read-out: E. coli K12 MIC90.
Setting [6] is: No Supplement (N.S.), ATCC 2511 media, 16 h, 37 °C, read-out: E. coli K12 MIC90.
Setting [7] is: No Supplement (N.S.), ATCC 2511 media, 16 h, 37 °C.

With `CCCSc1ccc2nc(NC(=O)OC)[nH]c2c1` [Albendazole, reference compound], the solubility in “Solubility” (aqueous buffer, pH 7.4 (Table S1), read-out: Solubility Avg. Sol) is 5.33 µg/mL and 20.1 µM. Also, the “%Soluble” value in “Solubility” (pH 7.4 (Table S1)) is on record as 20.1%.

In the case of `NC(=O)N1c2ccccc2C=Cc2ccccc21` [Carbamazepine, reference compound], the “%Soluble” value in the data set “Solubility” (pH 7.4 (Table S1)) amounted to 85.1%. The solubility in “Solubility” (setting [3]) is 20.1 µg/mL and 85.1 µM.

A word on the CLint scaled: it is the capacity of the preparation to metabolise the compound, expressed as a volume cleared per time. The term MIC90 denotes the lowest concentration that inhibits either 90% of growth or 90% of the strains tested, depending on the study. As to `O=C(CSc1cnn[nH]1)Nc1ccccc1F` [Compound 1], the CLint scaled in data set [1] was 7 mL/min/kg; in data set [2] it was 209 mL/min/kg. Moreover, the half-life in data set [1] was 180 ± 12 min; in the data set “Plasma stability (human)”, 2088 ± 18 min; in “Plasma stability (mouse)”, 23.4 ± 0.6 min; in data set [2], 16.2 ± 0.6 min. For the same compound, in “Solubility” (pH 7.4 (Table S1)), the “%Soluble” value turned out to be 65.2%. The solubility is 16.4 µg/mL and 65.2 µM in “Solubility” (setting [3]); 16 ± 0.8 µg/mL (≈ 63.4 µM) in the data set “Solubility” (setting [4]). Moreover, the MIC90 came out at 12.5 µg/mL (≈ 49.5 µM) with E. coli K12 MG1655 (setting [5]) and 1.6 µg/mL (≈ 6.34 µM) with E. coli K12 MG1655 (setting [6]). Also, in the data set on E. coli K12 MG1655 (setting [7]), the “E. coli K12 MIC90” value is at most 3.1 µg/mL.

Consider `O=C(CSc1cnn[nH]1)Nc1ccc(F)cc1` [Compound 2], for which the CLint scaled in data set [1] was 4.4 mL/min/kg; in data set [2], 87.4 mL/min/kg. Also, the half-life was 282 ± 24 min in data set [1], 2180 ± 330 min in “Plasma stability (human)”, 150 ± 12 min in the data set “Plasma stability (mouse)” and 39 ± 1.8 min in data set [2]. For the same compound, the “%Soluble” value in “Solubility” (pH 7.4 (Table S1)) stood at 73.4%. Also, the solubility in “Solubility” (setting [3]) is 18.5 µg/mL and 73.4 µM; in “Solubility” (setting [4]), 18 ± 2.3 µg/mL (≈ 71.4 µM). Also, the MIC90 is 12.5 µg/mL (≈ 49.5 µM) with E. coli K12 MG1655 (setting [5]) and 3.1 µg/mL (≈ 12.3 µM) in the data set on E. coli K12 MG1655 (setting [6]).

For `N#Cc1ccccc1NC(=O)CSc1cnn[nH]1` [Compound 3], the CLint scaled was found to be 5.7 mL/min/kg in data set [1] and 50.5 mL/min/kg in data set [2]. Further, the half-life is 222 ± 18 min in data set [1], 1380 ± 66 min in “Plasma stability (human)”, 66 ± 1.2 min in the data set “Plasma stability (mouse)” and 67.8 ± 3 min in data set [2]. Besides, the “%Soluble” value in “Solubility” (pH 7.4 (Table S1)) is 73.3%. The solubility in the data set “Solubility” (setting [3]) was 19 µg/mL and 73.3 µM. Besides, the “Avg. Sol” value in the data set “Solubility” (pH = 7.4, average of triplicate ± standard deviation) came out at 19 ± 1.5 µg/mL. Moreover, the values for the MIC90 in the data set on E. coli K12 MG1655 (setting [5]) and in the data set on E. coli K12 MG1655 (setting [6]) were 12.5 µg/mL (≈ 48.2 µM) and 3.1 µg/mL (≈ 12 µM), respectively.

For the compound `O=C(CSc1cnn[nH]1)Nc1ccccn1` [Compound 9], the CLint scaled is 7.7 mL/min/kg in data set [1] and 80.4 mL/min/kg in data set [2]. Moreover, the half-life in data set [1] was 162 ± 12 min; in the data set “Plasma stability (human)”, 1190 ± 114 min; in “Plasma stability (mouse)” it was 162 ± 12 min; in data set [2], 42.6 ± 1.2 min. The “%Soluble” value in the data set “Solubility” (pH 7.4 (Table S1)) was determined as 87.4%. Besides, the solubility in the data set “Solubility” (setting [3]) was 20.6 µg/mL and 87.4 µM; in “Solubility” (setting [4]), 20 ± 0.3 µg/mL (≈ 85 µM). In addition, the MIC90 was 12.5 µg/mL (≈ 53.1 µM) with E. coli K12 MG1655 (setting [5]) and 1.6 µg/mL (≈ 6.8 µM) in the data set on E. coli K12 MG1655 (setting [6]). Also, the “E. coli K12 MIC90” value in the data set with E. coli K12 MG1655 (setting [7]) is at most 3.1 µg/mL.

`N[C@H]1CCN(c2ccc(NC(=O)CSc3cnn[nH]3)cc2)C1` [Compound 50]: the “Whole Cell Accumulation in E. coli” value in the data set on E. coli K12 is 9.0 ± 2 μM/10^10 CFU. Moreover, the MIC90 with E. coli K12 MG1655 (setting [6]) was above 200 µg/mL.

With `O=C(CSc1cnn[nH]1)Nc1ccc(N2C[C@@H]3NCCO[C@H]3C2)cc1` [Compound 53], in the data set on E. coli K12, the “Whole Cell Accumulation in E. coli” value was 19 ± 1 μM/10^10 CFU. Further, the MIC90 in the data set on E. coli K12 MG1655 (setting [6]) was above 200 µg/mL.

As to `CN1CCN(c2ccc(NC(=O)CSc3cnn[nH]3)cc2)CC1` [Compound 56], the “Whole Cell Accumulation in E. coli” value with E. coli K12 is on record as 4.7 ± 2 μM/10^10 CFU. The MIC90 with E. coli K12 MG1655 (setting [6]) was above 200 µg/mL.

For `O=C(NCCSc1cnn[nH]1)c1ccccc1F` [Compound 58], the “Whole Cell Accumulation in E. coli” value in the data set on E. coli K12 stood at 7.0 ± 1 μM/10^10 CFU. Moreover, the “antibacterial activity against E. coli in words” value in the data set on E. coli K12 MG1655 is “moderate activity”. Moreover, the MIC90 in the data set on E. coli K12 MG1655 (setting [6]) turned out to be 12.5 µg/mL (≈ 46.9 µM).

Take `O=C(NCCSc1cnn[nH]1)c1ccc(O)c(O)c1` [Compound 59]: the “Whole Cell Accumulation in E. coli” value with E. coli K12 was determined as 1.0 ± 0.1 μM/10^10 CFU. Besides, in the data set with E. coli K12 MG1655, the “antibacterial activity against E. coli in words” value is “moderate activity”. The MIC90 with E. coli K12 MG1655 (setting [6]) is 50 µg/mL (≈ 178 µM).
